In brackets after ≈: the same amount, converted by molar mass. Activity calls are given as the source filed them. No cut-off for these calls is given here.
Assays:
[1] = test system: Candida albicans; assay: Induction of morphological changes in Candida albicans SC5314 assessed as edematous vacuoles measured for 96 to 144 hrs by TEM analysis; assay type: functional, organism-based; conditions: time 96-144 hrs
[2] = target: Lanosterol 14-alpha demethylase (Candida albicans (strain SC5314 / ATCC MYA-2876) (Yeast), UniProt P10613); assay: Inhibition of CYP51 in Candida albicans SC5314 assessed as lanosterol level at 4 ug/ml incubated for 16 hrs by GC-MS analysis relative to control; set-up: scale not given: the % may be the effect or the level left; conditions: at 4 µg/mL
[3] = test system: Candida albicans; assay: Induction of immunity in BALB/c mouse infected with Candida albicans 901 assessed as decrease in PD-L1 level at 0.5 ug/g administered 6 times measured after 4 days by Western blot analysis; assay type: functional, organism-based; conditions: dose 0.5 µg/g, time 4.0 day
[4] = test system: Candida albicans; assay: Induction of apoptosis in Candida albicans SC5314 assessed as increase in ROS level at 1 uM/ml incubated for 48 hrs by fluorescence microscopy; assay type: functional, organism-based
[5] = test system: Candida albicans; assay: Induction of immunity in BALB/c mouse infected with Candida albicans 901 assessed as decrease in PD-L1 level at 0.5 ug/g administered 6 times measured after 4 days by IHC analysis; assay type: functional, organism-based; conditions: dose 0.5 µg/g, time 4.0 day
[6] = test system: Candida albicans; assay: Antifungal activity against FLC-resistant Candida albicans CaR assessed as fungal growth inhibition incubated for 72 hrs by CLSI based susceptibility test; assay type: functional
[7] = target: T1, Programmed cell death 1 ligand 1 (Homo sapiens, UniProt Q9NZQ7); assay: Inhibition of human PD-L1 incubated for 15 mins by ELISA method
[8] = target: T1, Programmed cell death 1 ligand 1; assay: Binding affinity to PD-L1 (unknown origin) immobilized on carboxy chip assessed as dissociation constant by SPR analysis
[9] = test system: Candida albicans; assay: Induction of morphological changes in Candida albicans SC5314 assessed as disappearance of nuclear domains measured for 96 to 144 hrs by TEM analysis; assay type: functional, organism-based; conditions: time 96-144 hrs
[10] = test system: Mus musculus; assay: Antiinflammatory activity in BALB/c mouse infected with Candida albicans 901 assessed as decrease in INF-gamma level at 0.5 ug/g administered 6 times measured after 4 days by IHC analysis; assay type: functional, organism-based; conditions: dose 0.5 µg/g, time 4.0 day
[11] = test system: Candida albicans; assay: Antifungal activity against FLC-resistant Candida albicans 904 assessed as fungal growth inhibition incubated for 72 hrs by CLSI based susceptibility test; assay type: functional
[12] = test system: Candida albicans; assay: Antifungal activity against FLC-resistant Candida albicans 901 assessed as fungal growth inhibition incubated for 72 hrs by CLSI based susceptibility test; assay type: functional
[13] = test system: Candida albicans; assay: Antifungal activity against Candida albicans SC5314 assessed as fungal growth inhibition incubated for 72 hrs by CLSI based susceptibility test; assay type: functional
[14] = test system: Candida albicans; assay: Induction of morphological changes in Candida albicans SC5314 assessed as reduction in cytoplasmic density measured for 96 to 144 hrs by TEM analysis; assay type: functional, organism-based; conditions: time 96-144 hrs
[15] = test system: Candida albicans; assay: Antifungal activity against FLC-resistant Candida albicans 632 assessed as fungal growth inhibition incubated for 72 hrs by CLSI based susceptibility test; assay type: functional
[16] = Toxicity in BALB/c mouse infected with Candida albicans 901 assessed as plasma AST level at 0.5 ug/g administered 6 times measured after 4 days (reference value: 50.6 +/- 2.3 IU/L); conditions: in vivo, 96 h, dose 0.5 µg/g, time 4 day
[17] = test system: Candida albicans; assay: Antifungal activity against Candida albicans 901 infected in BALB/c mouse assessed as inhibition of fungal proliferation at 0.5 ug/g administered 6 times measured after 4 days by GMS staining based analysis; assay type: functional, organism-based; conditions: dose 0.5 µg/g, time 4.0 day
[18] = Toxicity in BALB/c mouse infected with Candida albicans 901 assessed as plasma ALT level at 0.5 ug/g administered 6 times measured after 4 days (reference value: 30.4 +/- 4.6 IU/L); conditions: in vivo, 96 h, dose 0.5 µg/g, time 4 day
[19] = Toxicity in BALB/c mouse infected with Candida albicans 901 assessed as pathological change in heart at 0.5 ug/g administered 6 times measured after 4 days by H and E staining based analysis; assay type: tissue-based; conditions: in vivo, 96 h, dose 0.5 µg/g, time 4 day
[20] = Drug uptake in Candida albicans SC5314 assessed as increase in red fluorescence by PI staining based imaging analysis; assay type: ADME
[21] = test system: Candida albicans; assay: Antifungal activity against Candida albicans 901 infected in BALB/c mouse assessed as disappearance of nuclear aggregation in lesion at 0.5 ug/g administered 6 times measured after 4 days by H and E staining based analysis; assay type: functional, organism-based; conditions: dose 0.5 µg/g, time 4.0 day
[22] = test system: Candida albicans; assay: Antifungal activity against Candida albicans 901 infected in BALB/c mouse assessed as inhibition of fungal proliferation at 0.5 ug/g administered 6 times measured after 4 days by Masson staining based analysis; assay type: functional, organism-based; conditions: dose 0.5 µg/g, time 4.0 day

T1 sequence (Q9NZQ7 whole entry): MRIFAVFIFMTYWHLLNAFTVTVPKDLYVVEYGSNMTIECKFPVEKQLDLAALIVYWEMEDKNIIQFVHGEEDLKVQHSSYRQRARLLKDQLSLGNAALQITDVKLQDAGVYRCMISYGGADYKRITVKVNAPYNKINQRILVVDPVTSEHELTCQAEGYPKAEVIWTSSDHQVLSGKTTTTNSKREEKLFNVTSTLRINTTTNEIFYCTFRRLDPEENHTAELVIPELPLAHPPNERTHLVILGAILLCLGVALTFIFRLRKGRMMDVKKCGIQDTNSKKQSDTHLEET
Chain of Lanosterol 14-alpha demethylase (P10613 whole entry): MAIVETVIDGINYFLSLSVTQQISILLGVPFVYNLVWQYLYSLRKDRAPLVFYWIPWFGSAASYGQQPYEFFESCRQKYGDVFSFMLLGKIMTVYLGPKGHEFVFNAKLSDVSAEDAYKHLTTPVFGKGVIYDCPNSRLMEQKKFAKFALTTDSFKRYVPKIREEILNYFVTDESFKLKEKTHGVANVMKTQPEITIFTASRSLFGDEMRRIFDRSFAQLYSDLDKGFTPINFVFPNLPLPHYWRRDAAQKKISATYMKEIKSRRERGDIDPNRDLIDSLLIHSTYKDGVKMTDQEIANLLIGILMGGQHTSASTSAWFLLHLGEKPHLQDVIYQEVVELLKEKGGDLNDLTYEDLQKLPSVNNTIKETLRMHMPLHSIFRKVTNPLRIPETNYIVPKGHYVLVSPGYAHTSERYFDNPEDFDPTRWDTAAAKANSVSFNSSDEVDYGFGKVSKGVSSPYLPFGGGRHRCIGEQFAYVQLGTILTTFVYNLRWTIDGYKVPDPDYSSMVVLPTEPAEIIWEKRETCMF

## COC(=O)[C@@H](Cn1cncn1)NCc1cccc(OCc2cccc(-c3ccccc3)c2C)c1
[1]
  Activity: Active
[2]
  Activity: 10.47%
[3]
  Activity: Active
[4]
  Activity: Active
[5]
  Activity: Active
[6]
  MIC50: 2 µg/mL (≈ 4.38 µM)
[7]
  IC50: 21 nM
[8]
  Kd: 15 nM
[9]
  Activity: Active
[10]
  Activity: Active
[11]
  MIC50: 2 µg/mL (≈ 4.38 µM)
[12]
  MIC50: 2 µg/mL (≈ 4.38 µM)
[13]
  MIC50: 0.125 µg/mL (≈ 0.274 µM)
[14]
  Activity: Active
[15]
  MIC50: 4 µg/mL (≈ 8.76 µM)
[16]
  Activity: 57.4 IU/L
[17]
  inhibition: Active
[18]
  Activity: 21.5 IU/L
[19]
  Activity: Non-Toxic
[20]
  Drug uptake: Active
[21]
  Activity: Active
[22]
  inhibition: Active

Reference: ChEMBL document CHEMBL5365529, “Construction and Evaluation of Novel Dual-function Antifungal Inhibitors and Covalent Organic Framework Carriers Based on the Infection Microenvironment” (J Med Chem, 2023)
